Results from patent US7935806B2, “Method for performing in vitro diagnosis using gene regulation mechanisms and corresponding diagnosis kit” (Unisensor S.A., priority 2001, dated 2011).

What was measured:
[1] = biological target: T1, avidin (Gallus gallus, UniProt P02701); settings: non-covalent; cited from earlier work
T1 construct: The avidin is a tetrameric glycoprotein isolated from egg-white; from tissue; host or cells: egg-white

[2] = biological target: T2, tetR of class C (Escherichia coli, UniProt P03039); type: binding, E. Coli C600; settings: 25 ppb in honey, read with the naked eye
T2 construct: two primers have been selected for amplification by PCR of the gene which has then been cloned in a pet12a-expression plasmid; made in house; host or cells: E. coli HB101 carrying pT7po123; expression plasmid pet12a
Method: In the example showing the measurement of the concentration based on samples of honey, one unpurified part of serum obtained above is placed in the presence of one part of tetR receptor obtained above in 1.1.1, 15 parts of A-protein marked by means of particles of colloidal gold of 40 nm and one DO at 500 nm of 10 (available from Unisensor S.A., Liege, Belgium) and 20 parts of lyophilisation buffer (Tris 10 mM, pH 8, BSA 5 mg/ml, sucrose 10 g/l). This mixture is lyophilised for 20 hours.
To 1 gram of honey are added 3 ml of dilution buffer (for 1 litre, 2.73 g of Na2HPO4.2H2O, 1.65 g of citric acid, 7 g of BSA and 2.5 g of Tween-20, pH 5) and the solutin is stirred vigorously so as to obtain a homogeneous solution. 200 μl of this dilution of the sample of honey are then incubated in the presence of the lyophilisate prepared above (see Point 1.1.2.2). After 10 minutes of incubation at ambient temperature (±20° C.), the analysis strip described above at 1.3 is immersed in the solution. The final interpretation is made with the naked eye, after 15 minutes of incubation at ambient temperature.

[3] = biological target: MetJ (Escherichia coli, UniProt P0A8U6); settings: in the presence of the co-repressor; cited from earlier work
MetJ, sequence (P0A8U6 2-105): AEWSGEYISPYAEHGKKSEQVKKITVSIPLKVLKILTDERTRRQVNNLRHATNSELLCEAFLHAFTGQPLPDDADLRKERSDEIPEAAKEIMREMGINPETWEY

T2 sequence (P03039 whole entry): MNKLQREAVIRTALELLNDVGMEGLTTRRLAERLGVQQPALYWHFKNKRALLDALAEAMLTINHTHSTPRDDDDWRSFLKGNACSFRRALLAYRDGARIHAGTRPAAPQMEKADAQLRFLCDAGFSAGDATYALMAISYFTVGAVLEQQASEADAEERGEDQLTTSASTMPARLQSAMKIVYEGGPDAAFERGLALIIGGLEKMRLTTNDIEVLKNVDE
T1 sequence (P02701 25-152): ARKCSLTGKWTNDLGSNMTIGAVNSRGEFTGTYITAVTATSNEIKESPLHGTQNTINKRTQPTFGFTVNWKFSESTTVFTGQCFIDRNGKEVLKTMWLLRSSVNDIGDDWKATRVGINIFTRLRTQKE

## O=C(O)CCCC[C@@H]1SC[C@@H]2NC(=O)N[C@@H]21 [biotin]
[1]
  affinity of avidin sub-unit for biotin (Ka): 10^15 M^−1

## CN(C)[C@@H]1C(O)=C(C(N)=O)C(=O)[C@@]2(O)C(O)=C3C(=O)c4c(O)ccc(Cl)c4[C@@H](O)[C@H]3C[C@@H]12 [demedocycline]
[2]
  test result (test signal lower than control signal = positive): positive result

## C[S+](CC[C@H](N)C(=O)[O-])C[C@H]1O[C@@H](n2cnc3c(N)ncnc32)[C@H](O)[C@@H]1O (stereo partly drawn) [s-adenosylmethionine]
[3]
  increase of MetJ affinity for DNA: more than 1,000 times
